Here are results for ten molecules from ChEMBL document CHEMBL5360657, “Discovery of the TLR7/8 Antagonist MHV370 for Treatment of Systemic Autoimmune Diseases” (ACS Med Chem Lett, 2023).

In data set [1] the target is T1, Toll-like receptor 7 (Homo sapiens, UniProt Q9NYK1).
T1 sequence (Q9NYK1 whole entry): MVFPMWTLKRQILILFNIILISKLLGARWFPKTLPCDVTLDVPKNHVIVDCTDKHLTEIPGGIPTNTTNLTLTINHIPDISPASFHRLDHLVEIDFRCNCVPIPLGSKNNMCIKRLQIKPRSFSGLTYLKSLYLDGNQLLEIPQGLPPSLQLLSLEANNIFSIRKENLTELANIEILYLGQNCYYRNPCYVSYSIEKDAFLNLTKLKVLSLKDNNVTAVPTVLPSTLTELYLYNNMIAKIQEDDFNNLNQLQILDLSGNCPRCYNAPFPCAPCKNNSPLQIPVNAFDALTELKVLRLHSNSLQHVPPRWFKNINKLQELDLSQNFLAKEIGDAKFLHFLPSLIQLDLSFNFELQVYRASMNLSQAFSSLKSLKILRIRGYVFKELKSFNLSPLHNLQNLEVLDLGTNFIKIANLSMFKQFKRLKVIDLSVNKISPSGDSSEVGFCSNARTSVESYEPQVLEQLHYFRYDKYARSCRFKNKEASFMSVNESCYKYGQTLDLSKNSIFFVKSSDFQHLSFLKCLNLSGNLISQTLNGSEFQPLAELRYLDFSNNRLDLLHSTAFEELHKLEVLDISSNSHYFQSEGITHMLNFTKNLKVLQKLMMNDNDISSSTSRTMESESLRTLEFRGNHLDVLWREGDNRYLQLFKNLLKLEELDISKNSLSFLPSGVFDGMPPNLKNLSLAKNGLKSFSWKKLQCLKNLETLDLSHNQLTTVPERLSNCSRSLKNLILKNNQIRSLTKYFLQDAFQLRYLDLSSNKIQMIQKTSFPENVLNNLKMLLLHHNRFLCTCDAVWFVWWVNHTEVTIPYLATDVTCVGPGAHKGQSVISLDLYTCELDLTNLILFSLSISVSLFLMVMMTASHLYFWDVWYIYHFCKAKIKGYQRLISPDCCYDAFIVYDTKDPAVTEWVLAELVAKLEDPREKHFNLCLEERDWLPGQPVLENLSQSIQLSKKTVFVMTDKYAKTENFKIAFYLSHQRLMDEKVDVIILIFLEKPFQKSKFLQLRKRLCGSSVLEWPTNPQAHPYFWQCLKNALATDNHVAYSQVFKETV
The data set is described as follows: Antagonist activity at TLR7 in human PBMC cells assessed as reduction in IFN alpha measured after 20 hrs by AlphaLISA assay. Format: cell-based.

In data set [2] the target is T2, Toll-like receptor 8 (Homo sapiens, UniProt Q9NR97).
T2 sequence (Q9NR97 whole entry): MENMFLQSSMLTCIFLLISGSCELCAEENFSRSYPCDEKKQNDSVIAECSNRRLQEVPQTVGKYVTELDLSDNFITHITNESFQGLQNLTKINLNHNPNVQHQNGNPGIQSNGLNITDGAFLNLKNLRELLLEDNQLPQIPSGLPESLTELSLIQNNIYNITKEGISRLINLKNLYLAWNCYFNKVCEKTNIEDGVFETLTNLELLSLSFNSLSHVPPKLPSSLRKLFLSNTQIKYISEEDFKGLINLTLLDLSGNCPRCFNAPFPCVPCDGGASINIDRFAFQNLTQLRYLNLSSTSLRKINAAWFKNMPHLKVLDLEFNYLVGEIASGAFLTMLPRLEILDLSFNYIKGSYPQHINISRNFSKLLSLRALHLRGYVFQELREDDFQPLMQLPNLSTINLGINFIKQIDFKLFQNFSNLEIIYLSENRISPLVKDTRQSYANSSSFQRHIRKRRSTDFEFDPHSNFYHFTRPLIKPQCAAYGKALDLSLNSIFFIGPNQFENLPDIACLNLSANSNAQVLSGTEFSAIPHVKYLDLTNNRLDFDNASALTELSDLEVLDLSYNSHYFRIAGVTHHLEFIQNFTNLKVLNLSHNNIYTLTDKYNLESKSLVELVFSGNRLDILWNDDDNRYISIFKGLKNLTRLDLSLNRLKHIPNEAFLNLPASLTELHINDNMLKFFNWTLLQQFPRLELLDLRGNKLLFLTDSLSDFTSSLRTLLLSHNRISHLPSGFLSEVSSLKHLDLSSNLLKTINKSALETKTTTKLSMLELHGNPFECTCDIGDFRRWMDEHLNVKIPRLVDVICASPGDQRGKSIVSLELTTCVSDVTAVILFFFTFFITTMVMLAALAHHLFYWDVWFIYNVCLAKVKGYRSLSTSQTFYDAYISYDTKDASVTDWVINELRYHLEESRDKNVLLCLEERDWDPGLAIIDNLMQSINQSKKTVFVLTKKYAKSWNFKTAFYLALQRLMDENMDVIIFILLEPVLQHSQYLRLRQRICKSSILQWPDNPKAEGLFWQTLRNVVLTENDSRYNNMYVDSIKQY
Kind of data set: Antagonist activity at TLR8 in human PBMC cells […] assessed as reduction in IL-6 level measured after 20 hrs by AlphaLISA assay. Format: cell-based.

Data set [3] can be described thus: Metabolic stability in human liver microsomes assessed as intrinsic clearance. Format: ADME, Microsome. The settings on record: read-out: CLH. Background: Microsomes from liver hold many membrane-bound enzymes, among them those of drug oxidation.
Data set [4] concerns the target T3, Cytochrome P450 3A4 (Homo sapiens, UniProt P08684). The data set is described as follows: Inhibition of CYP3A4 (unknown origin). The class given is ADME.
Data set [5] has as its target Voltage-gated inwardly rectifying potassium channel KCNH2 (Homo sapiens, UniProt Q12809). The data set is described as follows: Displacement of [3H]-dofetilite from human ERG (unknown origin). Format: toxicity.
Data set [6] in a line: Permeability of the compound by PAMPA. Format: ADME. For orientation: The PAMPA barrier holds no transporters, so it reflects passive diffusion.
Data set [7] is described as follows: Metabolic stability in rat liver microsomes assessed as intrinsic clearance. Format: ADME, Microsome. Conditions: read-out: CLH.
Data set [8] has as its target T3, Cytochrome P450 3A4. The data set is described as follows: Time dependent inhibition of CYP3A4 (unknown origin) assessed as Kobs. The class given is ADME.
The nature of data set [9]: Metabolic stability in mouse liver microsomes assessed as intrinsic clearance. Format: ADME, Microsome. The settings on record: read-out: CLH.
Data set [10] addresses T4, Toll-like receptor 9 (Homo sapiens, UniProt Q9NR96).
T4 sequence (Q9NR96 whole entry): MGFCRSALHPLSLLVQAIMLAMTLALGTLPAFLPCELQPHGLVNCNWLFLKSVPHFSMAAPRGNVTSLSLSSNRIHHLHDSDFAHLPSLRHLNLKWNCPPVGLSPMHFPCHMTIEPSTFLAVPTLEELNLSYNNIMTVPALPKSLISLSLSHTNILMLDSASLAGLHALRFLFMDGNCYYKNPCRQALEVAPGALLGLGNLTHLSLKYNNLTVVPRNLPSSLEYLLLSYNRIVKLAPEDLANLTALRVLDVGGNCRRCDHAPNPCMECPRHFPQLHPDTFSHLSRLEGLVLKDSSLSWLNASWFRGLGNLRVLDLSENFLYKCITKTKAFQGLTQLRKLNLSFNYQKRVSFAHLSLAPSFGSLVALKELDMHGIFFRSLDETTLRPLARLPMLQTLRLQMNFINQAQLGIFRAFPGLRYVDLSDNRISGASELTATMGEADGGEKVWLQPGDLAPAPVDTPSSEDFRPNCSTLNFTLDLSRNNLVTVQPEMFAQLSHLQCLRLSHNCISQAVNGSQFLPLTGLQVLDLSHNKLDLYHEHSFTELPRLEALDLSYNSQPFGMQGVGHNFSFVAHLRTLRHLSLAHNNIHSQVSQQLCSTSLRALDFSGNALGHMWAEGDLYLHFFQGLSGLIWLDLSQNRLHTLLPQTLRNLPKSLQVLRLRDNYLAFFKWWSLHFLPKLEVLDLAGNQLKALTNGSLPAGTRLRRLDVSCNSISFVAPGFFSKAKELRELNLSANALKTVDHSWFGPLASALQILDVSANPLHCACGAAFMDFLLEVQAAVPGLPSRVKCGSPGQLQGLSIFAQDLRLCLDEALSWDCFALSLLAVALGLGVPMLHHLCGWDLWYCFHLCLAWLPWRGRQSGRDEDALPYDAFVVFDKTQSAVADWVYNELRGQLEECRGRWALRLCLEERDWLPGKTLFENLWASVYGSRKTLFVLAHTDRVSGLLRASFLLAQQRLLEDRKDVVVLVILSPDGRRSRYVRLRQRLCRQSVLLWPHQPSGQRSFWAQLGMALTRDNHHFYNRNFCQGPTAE
Kind of data set: Antagonist activity at TLR9 in human PBMC cells assessed as reduction in IFN alpha measured after 20 hrs by AlphaLISA assay. Format: cell-based.

Voltage-gated inwardly rectifying potassium channel KCNH2, sequence (Q12809 whole entry, the tested form may be a part): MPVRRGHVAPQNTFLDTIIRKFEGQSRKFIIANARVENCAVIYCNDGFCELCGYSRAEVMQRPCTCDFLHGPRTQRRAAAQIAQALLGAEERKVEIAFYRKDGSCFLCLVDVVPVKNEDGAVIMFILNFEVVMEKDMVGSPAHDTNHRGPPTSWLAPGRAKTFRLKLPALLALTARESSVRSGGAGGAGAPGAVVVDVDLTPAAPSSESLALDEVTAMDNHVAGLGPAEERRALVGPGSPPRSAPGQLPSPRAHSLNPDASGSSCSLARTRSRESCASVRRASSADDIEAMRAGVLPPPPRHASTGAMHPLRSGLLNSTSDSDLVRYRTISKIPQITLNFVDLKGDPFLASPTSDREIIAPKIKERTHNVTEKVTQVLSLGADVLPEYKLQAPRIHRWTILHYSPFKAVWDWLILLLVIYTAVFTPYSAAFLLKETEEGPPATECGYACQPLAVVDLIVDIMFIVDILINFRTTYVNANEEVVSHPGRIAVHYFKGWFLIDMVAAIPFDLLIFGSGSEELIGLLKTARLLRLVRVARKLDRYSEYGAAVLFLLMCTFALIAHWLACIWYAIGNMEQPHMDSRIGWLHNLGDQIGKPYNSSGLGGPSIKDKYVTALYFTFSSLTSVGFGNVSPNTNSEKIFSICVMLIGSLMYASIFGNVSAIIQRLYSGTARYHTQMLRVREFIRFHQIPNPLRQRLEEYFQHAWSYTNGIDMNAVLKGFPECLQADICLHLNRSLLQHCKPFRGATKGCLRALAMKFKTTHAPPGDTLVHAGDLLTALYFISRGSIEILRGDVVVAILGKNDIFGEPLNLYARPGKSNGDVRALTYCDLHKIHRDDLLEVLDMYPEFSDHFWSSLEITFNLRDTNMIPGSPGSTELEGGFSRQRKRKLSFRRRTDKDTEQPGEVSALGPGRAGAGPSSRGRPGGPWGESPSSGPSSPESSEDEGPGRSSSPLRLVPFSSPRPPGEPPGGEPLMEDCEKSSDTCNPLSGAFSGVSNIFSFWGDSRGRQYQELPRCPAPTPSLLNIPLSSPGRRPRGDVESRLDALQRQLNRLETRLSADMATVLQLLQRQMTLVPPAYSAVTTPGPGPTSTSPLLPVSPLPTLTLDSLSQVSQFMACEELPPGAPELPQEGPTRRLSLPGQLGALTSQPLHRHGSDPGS
T3 sequence (P08684 whole entry): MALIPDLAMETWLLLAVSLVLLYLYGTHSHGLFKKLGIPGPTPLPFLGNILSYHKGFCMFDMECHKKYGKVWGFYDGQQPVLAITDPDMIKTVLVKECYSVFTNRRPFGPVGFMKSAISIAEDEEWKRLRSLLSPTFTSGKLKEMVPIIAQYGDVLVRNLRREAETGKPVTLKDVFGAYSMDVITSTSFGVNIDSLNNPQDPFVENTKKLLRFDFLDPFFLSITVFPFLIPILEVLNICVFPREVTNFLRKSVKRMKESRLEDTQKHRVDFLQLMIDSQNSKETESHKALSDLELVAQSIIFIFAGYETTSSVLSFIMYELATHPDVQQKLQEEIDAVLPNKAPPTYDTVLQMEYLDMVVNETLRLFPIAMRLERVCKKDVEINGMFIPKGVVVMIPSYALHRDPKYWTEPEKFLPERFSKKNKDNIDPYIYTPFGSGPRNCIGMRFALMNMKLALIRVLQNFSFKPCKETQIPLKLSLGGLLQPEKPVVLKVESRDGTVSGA

What is called IC50 is the concentration that gives 50% inhibition. As for `CCN(C)CC(=O)NC12CCC(Cn3nc(C)c4c3CCN(c3cc(C)nc5c3cnn5C)C4)(CC1)CC2`, the IC50 was below 5 nM in data set [1], 7 nM in [2], 28000 nM in [4] and above 30000 nM in data set [5]. Besides, the figures for the microsomal CLint in data set [3], in [7] and in data set [9] were 463 µL/min/mg, 48 µL/min/mg and above 700 µL/min/mg, respectively. Also, the “log(permeability)” value in data set [6] is on record as -4.1. The Kobs in data set [8] stood at 0.013 min⁻¹.
Consider `Cc1cc(N2CCc3c(c(C)nn3CC34CCC(NC(=O)[C@@H]5CNCCO5)(CC3)CC4)C2)c2cnn(C)c2n1`, for which the IC50 in data set [1] is 2 nM; in [2], 67 nM; in data set [10], 190 nM; in [4], 5500 nM. The microsomal CLint in data set [3] was 135 µL/min/mg; in data set [7] it was 24 µL/min/mg; in data set [9], 93 µL/min/mg. The “log(permeability)” value in data set [6] is recorded as -5.2.
Take `Cc1cc(N2CCc3c(c(C)nn3CC34CCC(NC(=O)CN5CCC5)(CC3)CC4)C2)c2cnn(C)c2n1`: the IC50 in data set [1] was 1 nM; in [2], 60 nM; in data set [10], 280 nM; in data set [4], 17000 nM; in data set [5] it was above 30000 nM. Further, the microsomal CLint in data set [3] stood at 90 µL/min/mg; in data set [7] it was 37 µL/min/mg. Moreover, in data set [6], the “log(permeability)” value was -4.6. The Kobs in [8] amounted to 0.044 min⁻¹.
On to `Cc1cc(N2CCc3c(c(C)nn3CC34CCC(NC(=O)CN(C)C)(CC3)CC4)C2)c2cnn(C)c2n1`, for which the IC50 in data set [1] is 6 nM; in data set [2] it was 25 nM; in [10] it was 730 nM; in [4], above 50000 nM; in data set [5], above 30000 nM. For the same molecule, the microsomal CLint is 147 µL/min/mg in data set [3], 33 µL/min/mg in data set [7] and 104 µL/min/mg in data set [9]. Also, the “log(permeability)” value in data set [6] is recorded as -4.3. Also, in data set [8], the Kobs came to 0.006 min⁻¹.
`Cc1cc(N2CCc3c(c(C)nn3CC34CCC(N5CCN(C)CC5=O)(CC3)CC4)C2)c2cnn(C)c2n1`: the IC50 in data set [1] is 19 nM; in data set [10], 5500 nM; in data set [4], above 50000 nM; in data set [5] it was above 30000 nM. Further, the microsomal CLint was determined as 71 µL/min/mg in [3], 50 µL/min/mg in [7] and 251 µL/min/mg in [9]. Besides, the “log(permeability)” value in data set [6] is given as -4.3.
In the case of `Cc1cc(N2CCc3c(c(C)nn3CC34CCC(NC(=O)[C@H]5COCCN5)(CC3)CC4)C2)c2cnn(C)c2n1`, the concentration for half-maximal inhibition (IC50) in [1] was 13 nM; in data set [2], 220 nM; in data set [10] it was 1900 nM; in data set [4], above 50000 nM; in data set [5], above 30000 nM. Further, the microsomal CLint in data set [3] is 54 µL/min/mg; in data set [7], below 15 µL/min/mg; in data set [9], 382 µL/min/mg. Further, in [6], the “log(permeability)” value is -5.3. In data set [8], the Kobs was 0.018 min⁻¹.
Regarding `Cc1cc(N2CCc3c(c(C)nn3CC34CCC(NC(=O)CN5CCCC5)(CC3)CC4)C2)c2cnn(C)c2n1`, the IC50 in data set [1] amounted to 4 nM; in data set [10], 1200 nM. The microsomal CLint is 329 µL/min/mg in data set [3], below 15 µL/min/mg in data set [7] and 531 µL/min/mg in [9]. Also, the “log(permeability)” value in [6] is -4.1.
In the case of `CN[C@H](C)C(=O)NC12CCC(Cn3nc(C)c4c3CCN(c3cc(C)nc5c3cnn5C)C4)(CC1)CC2`, the IC50 in data set [2] was 190 nM; in data set [10], 780 nM; in data set [4] it was above 50000 nM; in data set [5], above 30000 nM. The microsomal CLint in data set [3] was below 15 µL/min/mg; in data set [7], below 15 µL/min/mg; in [9] it was 120 µL/min/mg. The “log(permeability)” value in data set [6] is recorded as -5.3. Besides, the Kobs in data set [8] is 0.023 min⁻¹.
For the molecule `Cc1cc(N2CCc3c(c(C)nn3CC34CCC(NCC(=O)N(C)C)(CC3)CC4)C2)c2cnn(C)c2n1`, the half-maximal inhibitory concentration (IC50) in data set [1] was 41 nM; in [2], 190 nM; in data set [10], 3000 nM. Moreover, the results for the microsomal CLint in [3], in [7] and in data set [9] were 31 µL/min/mg, 29 µL/min/mg and below 15 µL/min/mg, respectively. In addition, the “log(permeability)” value in [6] is recorded as -5.4.
In the case of `Cc1cc(N2CCc3c(c(C)nn3CC34CCC(N5CCN(C)C(=O)C5)(CC3)CC4)C2)c2cnn(C)c2n1`, the IC50 in data set [1] was 56 nM; in [2], 400 nM; in [10], above 7300 nM; in [4], above 50000 nM; in [5], above 30000 nM. Also, the results for the microsomal CLint in data set [3], in data set [7] and in data set [9] were 39 µL/min/mg, 87 µL/min/mg and 103 µL/min/mg, respectively. The “log(permeability)” value in [6] is recorded as -5. The Kobs in [8] worked out at 0.015 min⁻¹.
